Data: patent publication US20260365653A1, “IRREVERSIBLE MUTEGFR INHIBITORS” (Bayer Aktiengesellschaft, priority 2022, published 2026)
Where “and” joins values, the source holds several entries; their conditions need not be identical. Equal values may be shown once.

Assays:
[1] = target: T1, mutEGFR (D770_N771insNPG, T790) (Homo sapiens, UniProt P00533, INS770NPG/T790M); assay: mutEGFR (D770_N771insNPG, T790) kinase assay; assay type: biochemical; settings: Table 2a, D770_N771insNPG
T1 construct: exact insNPG construct not described; in-house EGFR proteins were N-terminal GST fusions from baculovirus/insect cells (borders R669-A1210 given only for WT, insSVD, insASV)
From the text: The different EGFR proteins used in the biochemical kinase activity inhibition assays were generated inhouse by expression in insect cells using Baculo Virus system and subsequent purification as described in the following paragraphs.
The cDNAs encoding the various protein sequences from human EGFR human (P00533) were optimized for expression in eukaryotic cells and synthesized by the GeneArt Technology at Life Technologies.

BA/F3 (insSVD) cells = assay: Ba/F3-EGFR-insSVD cell survival assay (Cell Titer-Glo); assay type: cell-based; settings: Mus musculus, BaF3, 48 h
Method in brief: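 Ba/F3 cells stably expressing retroviral EGFR-insSVD or insSVD T790M, grown without IL-3 on 10 ng/ml EGF, 4000 cells/well. Compound pinned in, 48 h at 37° C. Viability by CellTiter-Glo luminescence.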

[2] = target: T2, mutEGFR (D770_N771insSVD) (Homo sapiens, UniProt P00533, DUP768-770); assay: Exon20-Mutant-EGFR (D770_N771insSVD) kinase assay (TR-FRET); assay type: biochemical
T2 construct: GST-EGFR #3 (SVD between D770 and N771); made in house; host or cells: Sf9 insect cells (baculovirus)

[3] = Table 3a, cell survival, Cell Titer-Glo, with 10 ng/ml EGF, without IL-3
[4] = mutEGFR (D770_N771insSVD) kinase assay IC50, Table 2a, D770_N771insSVD, 2 mM ATP
[5] = mutEGFR (D770_N771insSVD) kinase assay IC50, Table 2b (from US Priority Patent Application), mutEGFR D770_N771insSVD

T2 sequence (P00533 with tags, fused parts or gaps DUP768-770): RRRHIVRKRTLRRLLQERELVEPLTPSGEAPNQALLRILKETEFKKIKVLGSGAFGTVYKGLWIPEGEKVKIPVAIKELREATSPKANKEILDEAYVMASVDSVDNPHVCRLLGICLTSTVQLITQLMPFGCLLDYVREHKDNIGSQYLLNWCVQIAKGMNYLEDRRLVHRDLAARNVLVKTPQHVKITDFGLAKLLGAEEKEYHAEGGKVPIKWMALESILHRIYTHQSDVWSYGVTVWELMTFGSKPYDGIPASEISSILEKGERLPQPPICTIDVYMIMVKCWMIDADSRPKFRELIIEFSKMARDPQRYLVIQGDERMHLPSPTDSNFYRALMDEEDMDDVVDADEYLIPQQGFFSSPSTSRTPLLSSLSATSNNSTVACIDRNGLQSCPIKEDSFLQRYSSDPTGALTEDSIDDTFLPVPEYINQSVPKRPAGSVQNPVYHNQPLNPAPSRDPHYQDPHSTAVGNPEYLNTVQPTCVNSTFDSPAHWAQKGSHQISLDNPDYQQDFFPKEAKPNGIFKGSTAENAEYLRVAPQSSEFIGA
T1 sequence (P00533 with tags, fused parts or gaps INS770NPG/T790M limits assumed): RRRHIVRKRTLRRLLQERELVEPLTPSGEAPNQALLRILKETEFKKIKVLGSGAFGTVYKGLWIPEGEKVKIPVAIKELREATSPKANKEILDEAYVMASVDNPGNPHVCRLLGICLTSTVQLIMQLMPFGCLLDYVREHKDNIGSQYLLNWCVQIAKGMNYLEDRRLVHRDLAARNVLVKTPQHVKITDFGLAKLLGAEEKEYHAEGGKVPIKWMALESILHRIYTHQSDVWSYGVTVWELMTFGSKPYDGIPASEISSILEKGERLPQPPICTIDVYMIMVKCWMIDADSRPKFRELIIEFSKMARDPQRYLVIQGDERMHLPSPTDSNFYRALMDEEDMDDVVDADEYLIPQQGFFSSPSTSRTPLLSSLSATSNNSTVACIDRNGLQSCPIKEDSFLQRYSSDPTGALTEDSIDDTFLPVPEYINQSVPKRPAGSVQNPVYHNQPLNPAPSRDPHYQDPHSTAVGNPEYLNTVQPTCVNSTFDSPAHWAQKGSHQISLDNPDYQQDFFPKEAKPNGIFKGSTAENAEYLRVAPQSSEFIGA

Structure (SMILES)	IC50 [1]	IC50 (BA/F3 (insSVD) cells; [3]) [nM]	IC50 (BA/F3 (insSVD) cells; Table 3b, Ba/F3 EGFR-insSVD) [nM]	IC50 [2, 4] [nM]	IC50 [2, 5] [nM]
C=CC(=O)N1CCn2nc(Nc3ccc(F)cc3)c(-c3ccncc3)c2C1 [Example 19, 1-[2-(4-fluoroanilino)-3-(pyridin-4-yl)-6,7-dihydropyrazolo[1,5-a]pyrazin-5(4H)-yl]prop-2-en-1-one]	210 nM	823	823	25.9	25.9
C=CC(=O)N1CCn2nc(-c3ccc(F)cc3)c(-c3ccnc(Nc4ccccc4)c3)c2C1 [Example 20, 1-[3-(2-anilinopyridin-4-yl)-2-(4-fluorophenyl)-6,7-dihydropyrazolo[1,5-a]pyrazin-5(4H)-yl]prop-2-en-1-one]	9.13 nM	617	617	3.54	3.54
CN(C)C/C=C/C(=O)N1CCn2nc(-c3ccc(F)cc3)c(-c3ccnc(Nc4ccccc4)c3)c2C1 [Example 21, (2E)-1-[3-(2-anilinopyridin-4-yl)-2-(4-fluorophenyl)-6,7-dihydropyrazolo[1,5-a]pyrazin-5(4H)-yl]-4-(dimethylamino)but-2-en-1-one]	4.45 nM	101	101	1.17	1.17
C=CC(=O)N1CCn2nc(-c3ccc(F)cc3)c(-c3ccnc4[nH]ccc34)c2C1 [Example 22, 1-[2-(4-fluorophenyl)-3-(1H-pyrrolo[2,3-b]pyridin-4-yl)-6,7-dihydropyrazolo[1,5-a]pyrazin-5(4H)-yl]prop-2-en-1-one]	3.34 nM	62	62	5.12	5.12
C/C=C/C(=O)N1CCn2nc(-c3ccc(F)cc3)c(-c3ccncc3)c2C1 [Example 23, (2E)-1-[2-(4-fluorophenyl)-3-(pyridin-4-yl)-6,7-dihydropyrazolo[1,5-a]pyrazin-5(4H)-yl]but-2-en-1-one]	804 nM	3850		208	208
C=C(C)C(=O)N1CCn2nc(-c3ccc(F)cc3)c(-c3ccncc3)c2C1 [Example 24, 1-[2-(4-fluorophenyl)-3-(pyridin-4-yl)-6,7-dihydropyrazolo[1,5-a]pyrazin-5(4H)-yl]-2-methylprop-2-en-1-one]	14600 nM and > 20000 nM	9980		1150	1150
CN(C)C/C=C/C(=O)N1CCn2nc(-c3ccc(Cl)c(F)c3)c(-c3ccncc3)c2C1 [Example 25, (2E)-1-[2-(4-chloro-3-fluorophenyl)-3-(pyridin-4-yl)-6,7-dihydropyrazolo[1,5-a]pyrazin-5(4H)-yl]-4-(dimethylamino)but-2-en-1-one]	2.12 nM	62.3		0.6	
CN(C)C/C=C/C(=O)N1CCn2nc(-c3ccc(Cl)cc3F)c(-c3ccncc3)c2C1 [Example 26, (2E)-1-[2-(4-chloro-2-fluorophenyl)-3-(pyridin-4-yl)-6,7-dihydropyrazolo[1,5-a]pyrazin-5(4H)-yl]-4-(dimethylamino)but-2-en-1-one]	3.3 nM	70.3		1.26	
COc1ccc(-c2nn3c(c2-c2ccncc2)CN(C(=O)/C=C/CN(C)C)CC3)cc1Cl [Example 27, (2E)-1-[2-(3-chloro-4-methoxyphenyl)-3-(pyridin-4-yl)-6,7-dihydropyrazolo[1,5-a]pyrazin-5(4H)-yl]-4-(dimethylamino)but-2-en-1-one]	3.02 nM	679		3.77	
COc1ccccc1-c1nn2c(c1-c1ccncc1)CN(C(=O)/C=C/CN(C)C)CC2 [Example 28, (2E)-4-(dimethylamino)-1-[2-(2-methoxyphenyl)-3-(pyridin-4-yl)-6,7-dihydropyrazolo[1,5-a]pyrazin-5(4H)-yl]but-2-en-1-one]	35.2 nM	3980		70.2	
CN(C)C/C=C/C(=O)N1CCn2nc(-c3ccc(Cl)c(Cl)c3)c(-c3ccncc3)c2C1 [Example 29, (2E)-1-[2-(3,4-dichlorophenyl)-3-(pyridin-4-yl)-6,7-dihydropyrazolo[1,5-a]pyrazin-5(4H)-yl]-4-(dimethylamino)but-2-en-1-one]	1.54 nM	422		1.19	
COc1ccc(-c2nn3c(c2-c2ccncc2)CN(C(=O)/C=C/CN(C)C)CC3)cc1 [Example 30, (2E)-4-(dimethylamino)-1-[2-(4-methoxyphenyl)-3-(pyridin-4-yl)-6,7-dihydropyrazolo[1,5-a]pyrazin-5(4H)-yl]but-2-en-1-one]	23.7 nM	1080		7.25	
COc1ccc(-c2nn3c(c2-c2ccncc2)CN(C(=O)/C=C/CN(C)C)CC3)cc1F [Example 31, (2E)-4-(dimethylamino)-1-[2-(3-fluoro-4-methoxyphenyl)-3-(pyridin-4-yl)-6,7-dihydropyrazolo[1,5-a]pyrazin-5(4H)-yl]but-2-en-1-one]	18.8 nM	874		4.05	
CCc1cc(-c2nn3c(c2-c2ccncc2)CN(C(=O)/C=C/CN(C)C)CC3)ccc1Cl [Example 32, formic acid-(2E)-1-[2-(4-chloro-3-ethylphenyl)-3-(pyridin-4-yl)-6,7-dihydropyrazolo[1,5-a]pyrazin-5(4H)-yl]-4-(dimethylamino)but-2-en-1-one (1:1)]	3.89 nM	1070		1.31	
CN(C)C/C=C/C(=O)N1CCn2nc(-c3ccc(C#N)cc3)c(-c3ccncc3)c2C1 [Example 33, 4-{5-[(2E)-4-(dimethylamino)but-2-enoyl]-3-(pyridin-4-yl)-4,5,6,7-tetrahydropyrazolo[1,5-a]pyrazin-2-yl}benzonitrile]	67 nM	1840		8.35	
CN(C)C/C=C/C(=O)N1CCn2nc(-c3ccc(C(F)(F)F)cc3)c(-c3ccncc3)c2C1 [Example 34, (2E)-4-(dimethylamino)-1-[3-(pyridin-4-yl)-2-[4-(trifluoromethyl)phenyl]-6,7-dihydropyrazolo[1,5-a]pyrazin-5(4H)-yl]but-2-en-1-one]	4.32 nM	198		1.37	
CN(C)C/C=C/C(=O)N1CCn2nc(-c3ccc(Cl)cc3CO)c(-c3ccncc3)c2C1 [Example 35, (2E)-1-{2-[4-chloro-2-(hydroxymethyl)phenyl]-3-(pyridin-4-yl)-6,7-dihydropyrazolo[1,5-a]pyrazin-5(4H)-yl}-4-(dimethylamino)but-2-en-1-one]	2.94 nM	802		1.36	
C=CC(=O)N1CCn2nc(-c3ccc(OC)c(Cl)c3)c(-c3ccncc3)c2C1 [Example 38, 1-[2-(3-chloro-4-methoxyphenyl)-3-(pyridin-4-yl)-6,7-dihydropyrazolo[1,5-a]pyrazin-5(4H)-yl]prop-2-en-1-one]	0.489 nM	32.1		0.554	
C=CC(=O)N1CCn2nc(-c3ccccc3OC)c(-c3ccncc3)c2C1 [Example 39, 1-[2-(2-methoxyphenyl)-3-(pyridin-4-yl)-6,7-dihydropyrazolo[1,5-a]pyrazin-5(4H)-yl]prop-2-en-1-one]	18.3 nM	622		37.6	
C=CC(=O)N1CCn2nc(-c3ccc(OC)cc3)c(-c3ccncc3)c2C1 [Example 41, 1-[2-(4-methoxyphenyl)-3-(pyridin-4-yl)-6,7-dihydropyrazolo[1,5-a]pyrazin-5(4H)-yl]prop-2-en-1-one]	3.22 nM	37.2		1.09	
C=CC(=O)N1CCn2nc(-c3ccc(OC)c(F)c3)c(-c3ccncc3)c2C1 [Example 42, 1-[2-(3-fluoro-4-methoxyphenyl)-3-(pyridin-4-yl)-6,7-dihydropyrazolo[1,5-a]pyrazin-5(4H)-yl]prop-2-en-1-one]	6.31 nM	53.6		1.01	
C=CC(=O)N1CCn2nc(-c3ccc(C#N)cc3)c(-c3ccncc3)c2C1 [Example 43, 4-[5-acryloyl-3-(pyridin-4-yl)-4,5,6,7-tetrahydropyrazolo[1,5-a]pyrazin-2-yl]benzonitrile]	18.5 nM	131		3.16	
C=CC(=O)N1CCn2nc(-c3ccc(C(F)(F)F)cc3)c(-c3ccncc3)c2C1 [Example 44, 1-[3-(pyridin-4-yl)-2-[4-(trifluoromethyl)phenyl]-6,7-dihydropyrazolo[1,5-a]pyrazin-5(4H)-yl]prop-2-en-1-one]	2.8 nM	39		0.989	
C=CC(=O)N1CCn2nc(-c3cccc(C#N)c3)c(-c3ccnc4[nH]cc(C)c34)c2C1 [Example 45]	158 nM	218		973	
C=CC(=O)N1CCn2nc(-c3ccc(OC)c(F)c3)c(-c3ccnc4[nH]cc(C)c34)c2C1 [Example 46, 1-[2-(3-fluoro-4-methoxyphenyl)-3-(3-methyl-1H-pyrrolo[2,3-b]pyridin-4-yl)-6,7-dihydropyrazolo[1,5-a]pyrazin-5(4H)-yl]prop-2-en-1-one]	555 nM	170		770	
